The values that follow come from PubChem BioAssay (NCI).

Assay in all cases: inhibition of tumour cell growth, NCI panel, 48 h
Experiment [1] relates to RPMI-8226 leukemia.
For experiment [2], the system named is NCI-H23 lung.
Experiment [3] has as its system OVCAR-4 ovarian.
In experiment [4] the test system is T-47D breast.
Experiment [5] deals with SF-268 CNS.
In experiment [6] the test system is SR leukemia.
Experiment [7] deals with HCT-116 colon.
For experiment [8], the system named is HOP-62 NSCLC.
Experiment [9] deals with IGROV1 ovarian.
Experiment [10] relates to A498 renal.
For experiment [11], the system named is MOLT-4 leukemia.

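Briefly, cells in 96-well plates were exposed to five compound concentrations for 48 h, and endpoints were estimated by linear interpolation. At the TGI there is no net growth.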

As for `O=c1c2ccccc2n2n1Cc1ccccc1C2`, the TGI in experiment [1], in [2], in experiment [3], in experiment [4], in experiment [5] and in experiment [6] was more than 100 µM throughout. Further, the TGI in [7], in experiment [8], in experiment [9], in [10] and in experiment [11] was more than 100 µM throughout.

As for `Cc1ccc(Nc2cc(=O)[nH]c(=O)[nH]2)cc1CS`, the TGI in experiment [1], in experiment [2], in experiment [3], in experiment [4], in [5] and in experiment [6] was more than 100 µM each time. Moreover, the TGI in experiment [7], in experiment [8], in experiment [9], in experiment [10] and in experiment [11] was more than 100 µM throughout.

In the case of `CC(=O)[C@]1(C)[C@H](C)O[C@](C)(CO)[C@H]1O[Si](C)(C)c1ccccc1`, the TGI in [1] was more than 100 µM; in experiment [2], 81 µM; in [3], more than 100 µM; in [4] it was 97.9 µM; in experiment [5], more than 100 µM; in experiment [6], more than 100 µM. The TGI is more than 100 µM in experiment [7]; more than 100 µM in experiment [8]; 41.4 µM in [9]; more than 100 µM in experiment [10]; more than 100 µM in experiment [11].

Consider `CC1C(=O)CC[C@@]2(C)C(=O)CCCC12O` (stereo not given in full), for which the TGI in experiment [1], in [2], in experiment [3], in experiment [4], in experiment [5] and in [6] was more than 100 µM each time. Further, the TGI in [7], in [8], in experiment [9], in experiment [10] and in experiment [11] was more than 100 µM throughout.

`Cc1cc(S(=O)(=O)Nc2nc(N)nc(N(C)C)n2)c(SC(C(=O)O)c2ccccc2)cc1Cl` (stereo not given): the TGI in experiment [1], in experiment [2], in [3], in experiment [4], in [5] and in experiment [6] was more than 10 µM each time. Further, the TGI in experiment [7], in experiment [8], in experiment [9], in [10] and in [11] was more than 10 µM in each case.

For `CCN(CC)c1nc(=O)c(C(=O)C(C)(C)C)c(C(C)(C)C)o1`, the TGI in experiment [1], in [2], in experiment [3], in experiment [4], in experiment [5] and in [6] was more than 100 µM each time. The TGI in experiment [7], in experiment [8], in [9], in experiment [10] and in [11] was more than 100 µM throughout.

As for `O=c1[nH]cnc2c1ncn2C1SC(CO)C(O)C1O` (stereo not given), the TGI in [1], in [2], in [3], in experiment [4], in experiment [5] and in experiment [6] was more than 100 µM in each case. Moreover, the TGI in experiment [7], in [8], in experiment [9], in experiment [10] and in experiment [11] was more than 100 µM throughout.

Take `O=C1NCC2(CCNCC2)N1`: the TGI in experiment [1], in experiment [2], in [3], in [4], in experiment [5] and in experiment [6] was more than 100 µM in each case. Besides, the TGI in experiment [7], in experiment [8], in [9], in [10] and in experiment [11] was more than 100 µM each time.

For `COC(=O)c1c2c(cc3c1CC1(C3)Cc3ccc4c(c3C1=O)CCC4)CCC2` (stereo not given), the TGI in experiment [1] is more than 72.6 µM; in experiment [2], more than 31.6 µM; in experiment [3] it was more than 92 µM; in experiment [4] it was more than 100 µM; in [5], more than 100 µM; in experiment [6], more than 21.9 µM. Further, the TGI was more than 62.2 µM in experiment [7]; more than 30 µM in [8]; more than 100 µM in [9]; more than 49.7 µM in experiment [10]; more than 100 µM in [11].

Regarding `NS(=O)(=O)c1ccc(N=Nc2nc3[nH]cnc(=S)c3[nH]2)cc1`, the TGI was 6.53 µM in experiment [1]; 14.2 µM in experiment [2]; more than 100 µM in [3]; more than 25.3 µM in experiment [4]; more than 100 µM in experiment [5]; 1.11 µM in experiment [6]. In addition, the TGI in experiment [7] is 16.3 µM; in experiment [8], more than 51.1 µM; in [9], more than 100 µM; in experiment [10], 98.9 µM; in experiment [11], 4.19 µM.
